The record followed here is patent US12352767B2, “Method of treating cognitive decline associated with neurological diseases based on a decrease in FLT4 expression or activity” (University of Virginia Patent Foundation, priority 2018, dated 2025).

In data set [1] the test system is brain/meningeal vasculature. The experiment in a line: Photoacoustic imaging of brain/meningeal blood flow and oxygenation. It is filed as in vivo. The conditions noted are these: 5xFAD mice, 1 week after Visudyne/photoconversion. From the text:
Adult mice were maintained under anesthesia with 1.5% isoflurane and at a constant body temperature with the aid of a heating pad. A surgical incision was made in the scalp and the fascia was removed to expose the skull. One day prior to the imaging, the skull over the region of interest was thinned to the desired thickness (˜100 μm). Mice were then imaged by multi-parametric photoacoustic microscopy, which is capable of simultaneously image oxygen saturation of hemoglobin (sO2) and blood flow speed as described previously^50. Using the oxy-hemoglobin and deoxy-hemoglobin values, recorded using two nanosecond-pulsed lasers (532 and 559 nm), it is possible to compute the final sO2. Correlation analysis of adjacent A-line signals allows the quantification of blood flow speed within individual vessels. By segmenting major vessels within the region of interest, average values of the blood flow speed and sO2 were extracted for quantitative analysis.

A further data set deals with aquaporin 4 (AQP4). Nature of the data set: AQP4 / CD31 immunostaining of brain sections. Format: in vivo, mice.
Data set [2] relates to mice. Nature of the data set: Contextual fear conditioning test. The conditions noted are these: Visudyne/photoconversion twice. It is filed as in vivo. As for the experimental part:
This behavioral test was performed following a published protocol^53 with modifications. In this associative learning task, mice are presented with a neutral conditioned cue stimulus that is paired with an aversive unconditioned stimulus in a particular context. The mice learn that the chamber context and the cue stimulus predict the aversive stimulus and elicit a specific behavioral response, namely freezing. Mice were brought into the testing room to acclimate for at least 30 minutes before testing. For the test, we used two Habitest® chambers (Coulbourn Instruments, Allentown, PA, USA) with stainless grid floors attached to a shock generator for foot shock delivery and dimly illuminated with a white fluorescent light bulb. The chambers were cleaned and made odor-free before starting the experiment and between each session (or each mouse). The fear conditioning test was conducted over 2 days. […] On day 2, mice were tested and scored for conditioned fear to the training context for 3 minutes (context test), but with no presentation of the cue stimulus. […] Mice behaviour was recorded by a digital video camera mounted above the conditioning chamber and freezing was manually scored by a blinded experimenter using the Etholog V2.2 software. Parameters analysed included the percentage of time freezing during the 3 minutes of the context test and the last 3 minutes of the cued test.

Data set [3] concerns mice. Nature of the data set: Open field test. Format: in vivo. The conditions noted are these: Visudyne/photoconversion twice, two-week interval, adult mice. As for the experimental part:
Open field was performed following a published protocol^51 with minor modifications. Mice were carried to the behavior room to habituate at least 30 min before starting the test. Mice were then placed into the open field arena (made of opaque white plastic material, 35 cm×35 cm) by a blinded experimenter and allowed to explore it for 15 min. Total distance (cm) and % time spent in the center (22 cm×22 cm) were quantified using video tracking software (TopScan, CleverSys, Inc.).

Another data set concerns J20 mice. The experiment in a line: Amyloid pathology in meninges and hippocampus of J20 mice (Aβ immunostaining). Format: in vivo. The protocol: Male or female wild-type mice (C57BL/6J background) were either bred in-house, purchased from the Jackson Laboratory (Bar Harbor, Maine, USA) or provided by the National Institutes of Health/National Institute on Aging (Bethesda, MD, USA). All mice were maintained in the animal facility for habituation for at least 1 week prior to the start of the manipulation/experimentation. C57BL/6J wild-type mice were tested at 2-3, 12-14 and 20-24 months of age. Male hemizygous B6.Cg-Tg(PDGFB-APPSwInd)20Lms/2Mmjax (J20, JAX stock #006293) and B6.Cg-Tg(APPSwFILon,PSEN1*M146L*L286V)6799Vas/Mmjax (5×FAD, JAX stock #008730) were purchased from the Jackson Laboratory and bred in-house on a C57BL/6J background. […] 5×FAD hemizygous mice overexpress the transgene constructs under neural-specific elements of the mouse thymocyte differentiation antigen 1 promoter and present accelerated accumulation of Aβ42 and deposition of amyloid and gliosis in the brain starting at 2 months of age, with dramatic amyloid plaque load without major behavioral deficits at 5 months^45. In-house bred male transgene carriers and non-carrier (WT) littermates were used at different ages that are indicated throughout the manuscript. […]

Data set [4] concerns mice. The experiment in a line: Novel location recognition test. Format: in vivo. The conditions noted are these: Visudyne/photoconversion twice, adult mice. As for the experimental part:
Novel location recognition test was performed following a published protocol^52 with modifications. The experimental apparatus used in this study was the same square box made of opaque white plastic (35 cm×35 cm) used in the Open field test. The mice were first habituated to the apparatus for 15 min. Two different plastic objects (one red and the other blue and with different shapes) were then positioned in a defined spatial orientation, namely on each corner of the arena and 5 cm away from each adjacent arena wall. Mice were then placed in the arena (by a blinded experimenter), facing the wall farther away from the objects and allowed to explore the arena and objects for 10 min. Twenty-four hours later, the mice were placed in the same box with the same two objects, but one of them had switched location and was placed in a new quadrant, obliquely to the familiar object (novel location test). The time spent exploring the objects in the familiar and novel locations was also measured for 10 min. Exploration of an object was assumed when the mouse approached an object and touched it with its vibrissae, snout or forepaws and was measured using a video tracking software (TopScan, CleverSys, Inc.). The object location preference (% of time with object) was calculated as the exploration time of the objects in the familiar or in the novel location/total exploration time.

Where [5] appears, read: Visudyne-treated vs vehicle-treated mice.

“Also recorded” adds a separate entry of the source.

Description for aquaporin 4 (AQP4): Mouse fresh frozen brain sections were fixed with 4% PFA for 30 min, rinsed in dH2O and submitted to a heat-induced antigen retrieval step with 10 mM citrate buffer for 20 min. […] The steps described next were generally applied for mouse fresh frozen or fixed free-floating brain sections, lymph node sections on slide, meningeal whole-mounts and human fixed tissue. For immunofluorescence staining, tissue was rinsed in PBS and washed with PBS 0.5% Triton-X-100 for 10 min, followed by incubation in PBS 0.5% Triton-X-100 containing 0.5% of normal serum (either goat or chicken) and 0.5% bovine serum albumin (BSA) for 1 hour at RT. This blocking step was followed by incubation with appropriate dilutions of primary antibodies: anti-LYVE-1 eFluor 660 or anti-LYVE-1 Alexa Fluor® 488 (eBioscience, clone ALY7, 1:200), anti-CD31 (Millipore Sigma, MAB1398Z, clone 2H8, 1:200), anti-IBA1 (Abcam, ab5076, 1:300), anti-GFAP (Millipore Sigma, ab5541, 1:300), anti-AQP4 (Millipore Sigma, A5971, 1:200), anti-Ki67 (Abcam, ab15580, 1:100), anti-hAβ1-16 (BioLegend, clone 6E10, 1:200), anti-Aβ1-37/42 (Cell Signaling, clone D54D2, 1:300) and anti-GFP (Abcam, ab6556, 1:300) in PBS 0.5% Triton-X-100 containing 0.5% of normal serum and 0.5% BSA overnight at 4° C. Meningeal whole-mounts or tissue sections were then washed 3 times for 5 min at RT in PBS 0.5% Triton-X-100 followed by incubation with the appropriate chicken, goat or donkey Alexa Fluor® 488, 546, 594, or 647 anti-rat, -goat, -rabbit, -mouse or -Armenian hamster IgG antibodies (Thermo Fisher Scientific, 1:500) for 1 or 2 hours at RT in PBS 0.5% Triton-X-100. After an incubation for 10 min with 1:2000 DAPI in PBS, the tissue was washed 3 times for 5 min with PBS at RT and mounted with Aqua-Mount (Lerner) and glass coverslips. Preparations were stored at 4° C. for no more than 1 week until images were acquired either using a widefield microscope (Leica) or a confocal microscope (FV1200 Laser Scanning Confocal Microscope, Olympus). Quantitative analysis using the acquired images was performed on FIJI software. For the assessment of brain fluorescent tracer influx or efflux or AQP4 coverage, 10 representative brain sections were imaged using the widefield microscope and the mean area fraction was calculated using Microsoft Excel. […] Area of coverage by CD31^+ blood vessels and AQP4^+ astrocyte endfeet in the brain cortex was achieved by calculating the mean value of 10 representative fields (5 images in each cerebral hemisphere) per sample acquired using the confocal microscope.

Turning to verteporfin [Visudyne], in data set [1], the “blood flow in brain/meninges” value is on record as “no differences; also recorded: did not affect” and the “blood oxygenation in brain/meninges” value is listed as “no differences; also recorded: did not affect”. For the same substance, in the data set on aquaporin 4 (AQP4) (Visudyne vs vehicle), the “area of AQP4+ astrocytic endfeet in brain cortex” value is recorded as “No changes were observed”; the “area of CD31+ blood vessels in brain cortex” value is reported as “No changes were observed”; the “ratio between area of AQP4+ and of CD31+” value is “No changes were observed”. In the data set with aquaporin 4 (AQP4) (setting [5]), the “overall brain coverage by AQP4 (area fraction)” value is “could not detect changes; also recorded: no differences between groups” and the “perivascular localization of AQP4+ astrocytic endfeet” value is listed as “could not detect changes”. The CFC context test entry in the data set on mice [2] (adult mice) is reported as “no differences between groups”. For the same substance, the CFC cued test entry in the data set with mice [2] (vs control groups) was “statistically significant difference”. Besides, in the data set with mice [3], the “open field time in center of the arena” value is listed as “No differences between the groups” and the “open field total distance” value is reported as “No differences between the groups”. Also, the “Aβ aggregates / amyloid deposition in the meninges” value in the data set on J20 mice (Visudyne/photoconversion every 3 weeks for 3 months) is “Aβ aggregates had formed in the meninges; also recorded: marked amyloid deposition”. Moreover, the “Aβ plaque load (coverage) in the hippocampi” value in the data set on J20 mice (Visudyne/photoconversion for 3 months vs vehicle) is reported as “significantly increased; also recorded: statistically significant increase in coverage”. In addition, in the data set with mice [4], the “NLR novel location task (time with object in novel location)” value was “No differences between the groups; also recorded: identical” and the NLR training performance entry was “identical”.
